Structures are written as SMILES.

One assay concerns hIL-6 mRNA. In words: Quantification of hIL-6 mRNA in LPS-stimulated U937 macrophages (real-time PCR). The class given is cell-based, human. Further details: key: Active: an active compound is one that causes a ≧20% inhibition in IL-6 mRNA at a concentration less than or equal to 10 μM. The note with it: U937 cells differentiated with PMA, 1 h pretreatment, LPS 1 μg/mL, 3 h; IL-6 mRNA normalised to hCyclophilin; compound ≤10 μM. On the procedure:
In this example, hIL-6 mRNA in tissue culture cells was quantitated to measure the transcriptional inhibition of hIL-6 when treated with a compound of the invention.
A human leukemic monocytic lymphoma cell line (U937) was plated (3.2×10^5 cells per well) in a 96-well plate in 100 μL RPMI 1640+10% FBS, and differentiated into macrophages with PMA (60 ng/mL) for 3 days prior to the addition of the compound of interest. The cells were pretreated for 1 h with the test compound in DMSO prior to stimulation with lipopolysaccharide from Escherichia coli at 1 μg/mL. The cells were incubated for 3 h before harvest. At the time of harvest, cells were rinsed in 200 μL PBS. Cell lysis solution (70 μL) was added the cells for 10 min, and mRNA was then prepared using the “mRNA Catcher PLUS plate” (Invitrogen), according to the protocol supplied.
The eluted mRNA isolated was then used in a one-step quantitative real-time PCR reaction, using components of the UltraSense kit together with Applied Biosystems primer-probe mixes. 10 μL of template was amplified with 1.75 μL of IL-6 primer-probe, and 1 μL of hCyclophilin primer probe, and the reaction was carried out in multiplex. Real-time PCR data was analyzed, normalizing the Ct values for hIL-6 to hCyclophilin, prior to determining the fold induction of each unknown sample, relative to the control.
On the technique in general: In qPCR the cycle at which signal appears reflects the starting amount.

For the next assay, the system named is hVCAM-1 mRNA. In words: Quantification of hVCAM-1 mRNA in TNF-α-stimulated HUV-EC-C cells (real-time PCR). To be noted: 1 h pretreatment, TNF-α 10 ng/mL, 24 h, VCAM-1 mRNA normalised to hCyclophilin, compound ≤10 μM. The class given is cell-based, human. Further details: key: Active: an active compound is one that causes a ≧20% inhibition in VCAM-1 mRNA at a concentration less than or equal to 10 μM. On the procedure: In this example, hVCAM-1 mRNA in tissue culture cells was quantitated to measure the transcriptional inhibition of hVCAM when treated with a compound of the invention.
A human umbilical vein endothelial cell line (HUV-EC-C) was plated in a 96-well plate (5.0×10^3 cells/well) in 100 μL EGM complete media and incubated for 24 h prior to the addition of the compound of interest. The cells were pretreated for 1 h with the test compound in DMSO prior to stimulation with tumor necrosis factor-α (10 ng/mL). The cells were incubated for an additional 24 h before harvest. At time of harvest, the cells were rinsed in 200 μL PBS, and cell lysis solution (70 μL) was then added the cells for 10 min. mRNA was then prepared using the “mRNA Catcher PLUS plate” (Invitrogen), according to the protocol supplied.
The eluted mRNA was then used in a one-step quantitative real-time PCR reaction, using components of the UltraSense kit together with Applied Biosystems primer-probe mixes. 10 μL of template was amplified with 1.75 μL of hVCAM-1 primer-probe, and 1 μL of hCyclophilin primer probe, and the reaction was carried out in multiplex. Real-time PCR data was analyzed, normalizing the Ct values for hVCAM-1 to hCyclophilin, prior to determining the fold induction of each unknown sample, relative to the control.

In the case of `COc1cc(OCCOCc2ccccc2)cc2nc(-c3cc(C)c(O)c(C)c3)[nH]c(=O)c12` [Example 5, 7-(2-benzyloxy-ethoxy)-2-(4-hydroxy-3,5-dimethyl-phenyl)-5-methoxy-3H-quinazolin-4-one], in the assay on hIL-6 mRNA, the “Inhibition of IL-6 expression” value is recorded as “Active”. In addition, the “Inhibition of VCAM-1 expression” value with hVCAM-1 mRNA is “Active”.

Consider `Cc1cc(-c2nc3cc(OCCN(C)C)ccc3c(=O)[nH]2)cc(C)c1O` [Example 7, 7-(2-dimethylamino-ethoxy)-2-(4-hydroxy-3,5-dimethylphenyl)-3H-quinazolin-4-one], for which, in the assay on hIL-6 mRNA, the “Inhibition of IL-6 expression” value is reported as “Active”. Also, in the assay with hVCAM-1 mRNA, the “Inhibition of VCAM-1 expression” value was “Active”.

On to `Cc1cc(-c2nc3ccc(Nc4ccccn4)cc3c(=O)[nH]2)cc(C)c1O` [Example 9, 2-(4-hydroxy-3,5-dimethyl-phenyl)-6-(pyridin-2-ylamino)-3H-quinazolin-4-one], for which the “Inhibition of IL-6 expression” value in the assay on hIL-6 mRNA is “Active”. In addition, in the assay on hVCAM-1 mRNA, the “Inhibition of VCAM-1 expression” value was “Active”.

For `Cc1cc(-c2nc3ccc(CN4CCN(C)CC4)cc3c(=O)[nH]2)cc(C)c1O` [Example 10, 2-(4-hydroxy-3,5-dimethylphenyl)-6-((4-methylpiperazin-1-yl)methyl)quinazolin-4(3H)-one], in the assay with hIL-6 mRNA, the “Inhibition of IL-6 expression” value is “Active”. The “Inhibition of VCAM-1 expression” value with hVCAM-1 mRNA is recorded as “Active”.

Take `Cc1cc(-c2nc3cc(F)cc(F)c3c(=O)[nH]2)cc(C)c1OCCO` [Example 15, 5,7-difluoro-2-(4-(2-hydroxyethoxy)-3,5-dimethylphenyl)quinazolin-4(3H)-one]: in the assay on hIL-6 mRNA, the “Inhibition of IL-6 expression” value is given as “Active”. For the same compound, in the assay with hVCAM-1 mRNA, the “Inhibition of VCAM-1 expression” value was “Inactive”.

For the compound `Cc1cc(-c2nc3ccc(CN4CCOCC4)cc3c(=O)[nH]2)cc(C)c1OCCO` [Example 17, 2-[4-(2-hydroxyethoxy)-3,5-dimethyl-phenyl]-6-morpholin-4-ylmethyl-3H-quinazolin-4-one], the “Inhibition of IL-6 expression” value with hIL-6 mRNA is given as “Active”. Besides, in the assay on hVCAM-1 mRNA, the “Inhibition of VCAM-1 expression” value was “Inactive”.

Consider `COc1cc(OC)c2c(=O)[nH]c(-c3cc(C)c(OCC(O)CO)c(C)c3)nc2c1` (stereo not drawn) [Example 18, 2-[4-(2,3-Dihydroxy-propoxy)-3,5-dimethyl-phenyl]-5,7-dimethoxy-3H-quinazolin-4-one], for which, in the assay on hIL-6 mRNA, the “Inhibition of IL-6 expression” value was “Active”. For the same compound, in the assay on hVCAM-1 mRNA, the “Inhibition of VCAM-1 expression” value is on record as “Active”.

`COc1cc(OC)c2c(=O)[nH]c(-c3ccc(OCCO)cc3)nc2c1` [Example 20, 2-[4-(2-hydroxy-ethoxy)-phenyl]-5,7-dimethoxy-3H-quinazolin-4-one]: the “Inhibition of IL-6 expression” value with hIL-6 mRNA is “Active”. Moreover, the “Inhibition of VCAM-1 expression” value in the assay with hVCAM-1 mRNA was “Active”.

As for `COc1cc(OC)c2c(=O)[nH]c(-c3ccc(OCCO)c4ccccc34)nc2c1` [Example 21, 2-[4-(2-hydroxy-ethoxy)-naphthalen-1-yl]-5,7-dimethoxy-3H-quinazolin-4-one], the “Inhibition of IL-6 expression” value in the assay with hIL-6 mRNA was “Active”. Besides, the “Inhibition of VCAM-1 expression” value with hVCAM-1 mRNA is “Inactive”.

With `COc1cc(OC)c2c(=O)[nH]c(-c3ccc4oc(CO)cc4c3)nc2c1` [Example 22, 2-(2-hydroxymethyl-benzofuran-5-yl)-5,7-dimethoxy-3H-quinazolin-4-one], in the assay with hIL-6 mRNA, the “Inhibition of IL-6 expression” value was “Active”. Further, in the assay on hVCAM-1 mRNA, the “Inhibition of VCAM-1 expression” value is on record as “Active”.

On to `COc1cc(OCCOCc2ccccc2)cc2nc(-c3cc(C)c(OCCO)c(C)c3)[nH]c(=O)c12` [Example 23, 7-(2-benzyloxy-ethoxy)-2-[4-(2-hydroxy-ethoxy)-3,5-dimethyl-phenyl]-5-methoxy-3H-quinazolin-4-one], for which the “Inhibition of IL-6 expression” value in the assay on hIL-6 mRNA is reported as “Active”. Further, the “Inhibition of VCAM-1 expression” value with hVCAM-1 mRNA was “Active”.

Regarding `CNC(=O)COc1c(C)cc(-c2nc3cc(OC)cc(OC)c3c(=O)[nH]2)cc1C` [Example 25, 2-[4-(5,7-dimethoxy-4-oxo-3,4-dihydro-quinazolin-2-yl)-2,6-dimethyl-phenoxy]-N-methyl-acetamide], the “Inhibition of IL-6 expression” value with hIL-6 mRNA is “Active”. Further, the “Inhibition of VCAM-1 expression” value in the assay with hVCAM-1 mRNA was “Active”.

As to `COc1ccc(NC(=O)COc2c(C)cc(-c3nc4cc(OC)cc(OC)c4c(=O)[nH]3)cc2C)cc1` [Example 26, 2-[4-(5,7-Dimethoxy-4-oxo-3,4-dihydro-quinazolin-2-yl)-2,6-dimethyl-phenoxy]-N-(4-methoxy-phenyl)-acetamide], the “Inhibition of IL-6 expression” value in the assay with hIL-6 mRNA was “Active”. Also, the “Inhibition of VCAM-1 expression” value in the assay with hVCAM-1 mRNA is “Active”.

`COc1cc(OC)c2c(=O)[nH]c(-c3cc(C)c(OCCCCO)c(C)c3)nc2c1` [Example 28, 2-[4-(4-hydroxy-butoxy)-3,5-dimethyl-phenyl]-5,7-dimethoxy-3H-quinazolin-4-one]: the “Inhibition of IL-6 expression” value in the assay with hIL-6 mRNA is listed as “Active”. Further, the “Inhibition of VCAM-1 expression” value in the assay with hVCAM-1 mRNA is “Active”.

Turning to `Cc1cc(-c2nc3cc(Cl)ccc3c(=O)[nH]2)cc(C)c1OCCO` [Example 29, 7-chloro-2-(4-(2-hydroxyethoxy)-3,5-dimethylphenyl)quinazolin-4(3H)-one], the “Inhibition of IL-6 expression” value in the assay on hIL-6 mRNA is “Active”. For the same compound, the “Inhibition of VCAM-1 expression” value in the assay on hVCAM-1 mRNA is “Active”.

For the compound `Cc1cc(-c2nc3c(Cl)cccc3c(=O)[nH]2)cc(C)c1OCCO` [Example 30, 8-chloro-2-(4-(2-hydroxyethoxy)-3,5-dimethylphenyl)quinazolin-4(3H)-one], the “Inhibition of IL-6 expression” value in the assay with hIL-6 mRNA was “Active”. Further, in the assay on hVCAM-1 mRNA, the “Inhibition of VCAM-1 expression” value is reported as “Inactive”.

Turning to `COc1cccc2c(=O)[nH]c(-c3cc(C)c(OCCO)c(C)c3)nc12` [Example 31, 2-(4-(2-hydroxyethoxy)-3,5-dimethylphenyl)-8-methoxyquinazolin-4(3H)-one], the “Inhibition of IL-6 expression” value in the assay with hIL-6 mRNA is on record as “Active”. Further, the “Inhibition of VCAM-1 expression” value in the assay with hVCAM-1 mRNA is given as “Active”.

On to `Cc1cc(-c2nc3cccc(Cl)c3c(=O)[nH]2)cc(C)c1OCCO` [Example 32, 5-chloro-2-(4-(2-hydroxyethoxy)-3,5-dimethylphenyl)quinazolin-4(3H)-one], for which, in the assay with hIL-6 mRNA, the “Inhibition of IL-6 expression” value was “Active”. For the same compound, in the assay with hVCAM-1 mRNA, the “Inhibition of VCAM-1 expression” value was “Active”.

For the compound `COc1ccc2c(=O)[nH]c(-c3cc(C)c(OCCO)c(C)c3)nc2c1` [Example 33, 2-(4-(2-hydroxyethoxy)-3,5-dimethylphenyl)-7-methoxyquinazolin-4(3H)-one], the “Inhibition of IL-6 expression” value in the assay with hIL-6 mRNA is on record as “Active”. Moreover, the “Inhibition of VCAM-1 expression” value in the assay on hVCAM-1 mRNA is “Active”.

On to `Cc1cc(-c2nc3ccc(CN4CCN(C)CC4)cc3c(=O)[nH]2)cc(C)c1OCCO` [Example 34, 2-(4-(2-hydroxyethoxy)-3,5-dimethylphenyl)-6-((4-methylpiperazin-1-yl)methyl)quinazolin-4(3H)-one], for which, in the assay on hIL-6 mRNA, the “Inhibition of IL-6 expression” value is “Active”. Further, in the assay with hVCAM-1 mRNA, the “Inhibition of VCAM-1 expression” value is on record as “Active”.

Regarding `COc1cc(OC)c2c(=O)[nH]c(-c3ccc(OCCNc4nnc(-c5ccccc5)[nH]4)c(C)c3)nc2c1` [Example 35, 5,7-Dimethoxy-2-{3-methyl-4-[2-(5-phenyl-4H-[1,2,4]triazol-3-ylamino)-ethoxy]-phenyl}-3H-quinazolin-4-one], the “Inhibition of IL-6 expression” value in the assay with hIL-6 mRNA was “Active”. Besides, the “Inhibition of VCAM-1 expression” value with hVCAM-1 mRNA is “Active”.

For the compound `COc1cc(OC)c2c(=O)[nH]c(-c3cc(C)c(OCCNc4nc(C)no4)c(C)c3)nc2c1` [Example 36, 2-{3,5-Dimethyl-4-[2-(3-methyl-[1,2,4]oxadiazol-5-ylamino)-ethoxy]-phenyl}-5,7-dimethoxy-3H-quinazolin-4-one], the “Inhibition of IL-6 expression” value in the assay on hIL-6 mRNA was “Active”. Further, the “Inhibition of VCAM-1 expression” value in the assay on hVCAM-1 mRNA was “Active”.

With `COc1cc(OC)c2c(=O)[nH]c(-c3cc(C)c(OCCNC(C)=O)c(C)c3)nc2n1` [Example 37, N-{2-[4-(5,7-dimethoxy-4-oxo-3,4-dihydro-pyrido[2,3-d]pyrimidin-2-yl)-2,6-dimethyl-phenoxy]-ethyl}-acetamide], the “Inhibition of IL-6 expression” value in the assay on hIL-6 mRNA is “Active”. The “Inhibition of VCAM-1 expression” value in the assay on hVCAM-1 mRNA was “Inactive”.

With `COc1cc(OC)c2c(=O)[nH]c(-c3cc(C)c(CNC(C)=O)c(C)c3)nc2c1` [Example 38, N-(4-(5,7-dimethoxy-4-oxo-3,4-dihydroquinazolin-2-yl)-2,6-dimethylbenzyl)acetamide], the “Inhibition of IL-6 expression” value in the assay on hIL-6 mRNA is “Active”. The “Inhibition of VCAM-1 expression” value in the assay with hVCAM-1 mRNA is recorded as “Active”.

The values above are taken from patent US9757368B2, “Anti-inflammatory agents” (Resverlogix Corp., priority 2009, dated 2017).
